The text below walks through data of paper PMC11876601 (Molecular Systems Biology, 2025).

Several values for one entry are separate records, joined by “and”; a condition that tells them apart may be missing. Equal entries are not always repeated. Where two headings read alike, the source gives them in different places. A value given as a limit tells only on which side of the number the result lay.

The target of assay [1] is all target kinases identified with the Kinobeads technology. Put plainly: Kinobeads competition pulldown in AsPC-1 lysate, all kinases. Type of assay: binding, human. The note with it: all targets other than ATR and ACVR2; read-out: KDapp of all other targets. Here is the method: This was followed by incubation with Kinobeads ε (17.5 µl of settled beads) for 30 min at 4 °C to enrich kinases. […] Enriched proteins were reduced with 50 mM DTT in 8 M urea, 40 mM Tris-HCl, pH 7.4 for 30 min at room temperature, and alkylated with 55 mM chloroacetamide. After reducing the urea concentration to 1–2 M, proteins were digested with trypsin at 37 °C for 16 h. Subsequently, eluted peptides were desalted using SepPak tC18 µElution plates (Waters), freeze-dried by vacuum centrifugation, and stored at −20 °C.
For LC-MS/MS, dried peptides were reconstituted in 0.1% formic acid and analyzed on a Dionex Ultimate3000 nano HPLC (Thermo Scientific) coupled to an Orbitrap Fusion Tribrid mass spectrometer (Thermo Scientific), which was run in data-dependent mode. […]
Oxidized methionine and N-terminal acetylation were set as variable modification, and cysteine carbamidomethylation was set as fixed modification. Label-free quantification (LFQ) and match-between-runs were enabled. […]
Proteins were filtered by potential contaminants, reversed hits and proteins identified only by site. Residual binding of proteins was calculated from LFQ intensities as the ratio between drug doses and vehicle. […] Only kinases quantified with at least 4 unique peptides in the vehicle experiment were considered. […]

The target in a further assay is AXL. More on the design: method as in Reinecke et al. (2023). The note with it: 5 cell line mix lysate, Kinobeads ε, ref Reinecke et al. (2023), cited from earlier work.
The next assay concerns PDO UME012. Put plainly: PDO viability assay (CellTiter-Glo, 72 h).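 As to Curve top: fraction of plate-wise median vehicle signal.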 Type of assay: cell-based, human. On the set-up: Curve bottom: scale not given here. On the procedure:
Primary patient-derived PDAC organoid (PDO) experiments were performed in the laboratories of Prof. Maximilian Reichert (University Hospital of the TU Munich, Germany, PDO set 1: B250, B535, B678) and Prof. Jens T. Siveke (University Hospital Essen, Germany; PDO set 2: UME008, UME012, UME051, UME053, UME060, UME061). PDOs were generated from surgical resection, EUS-guided fine needle biopsy (EUS-FNB), or ascites (Appendix Table S2). Surgical specimens were first minced with a sterile scalpel and subsequently washed with Anti-Anti solution and washing medium (PDO set 1), or vice versa (PDO set 2; Appendix Table S3). Biopsy samples were directly washed with an Anti-Anti solution and washing medium. Samples were digested using 1 ml of digestion medium at 37 °C while shaking, and the enzymatic reaction was stopped by adding 15 ml of washing medium (Appendix Table S3). If samples of PDO set 1 were blood-stained, tissue pellets were first incubated with ACK lysing buffer/red blood cells lysis buffer (Thermo Fisher Scientific) for 5 min and then digested using TrypLE (Thermo Fisher Scientific). The reversed procedure was applied for blood-stained samples of PDO set 2. For PDO generation from ascites, the material was first spun down at 500 × g for 5 min. Then, washing medium was added and the suspension was centrifuged at 300 × g for 5 min. If the pellet was blood-stained, ACK lysis buffer was added and incubated at room temperature.
For viability assays in PDOs, confluent organoids were removed from medium, and Matrigel was dissolved by adding 200 μl (PDO set 1) or 2 ml (PDO set 2) of Cell Recovery Solution (Corning), and additionally 500 μl of DPBS (PDO set 1 only). Samples were transferred into a falcon and incubated on ice for 30 min, followed by centrifugation at 300 × g at 4 °C for 5 min (after adding 10 ml washing medium for PDO set 2). Subsequently, TrypLE Express Enzyme (Thermo Fisher) was added to cell pellets and incubated for 2 × 5 min at 37 °C. The enzymatic reaction was quenched by DPBS (PDO set 1) or washing medium (PDO set 2), and samples were washed by centrifugation at 300 × g at 4 °C for 5 min. Five hundred cells/well were seeded in 384-well plates (Corning) in 50 μl of PDO medium containing 10% Matrigel. To allow PDO generation, cells were incubated for 4 days at 37 °C and 5% CO2. […] Experiments were pipetted manually (PDO set 1) or automatically using a TECAN D300e Digital Dispenser (HP; PDO set 2). Treatments were performed in eight replicates, except for PDO PPES045 (quadruplicates). After 72 h, cell viability was measured using the CellTiter-Glo Luminescent Cell Viability Assay (Promega) diluted 1:5 in the final volume of the well. After 20 min of incubation at room temperature under gentle shaking, the acquisition was performed in the microplate reader VantaSTAR (BMG Labtech) using 3000 gain for the amplification measurement of a detected signal (PDO set 1) or the Spark Multimode microplate reader (TECAN) at 800 ms integration time (PDO set 2).

The subject of another assay is MAPK9. More on the design: method as in Klaeger et al. (2017). The following applies: lysate 4 cell line mix (Colo205, K-562, MV-4-11, and SK-N-BE(2)), Kinobeads y, ref Klaeger et al. (2017); cited from earlier work.
Where [2] appears, read: PDO UME012, GEM + Elimusertib (ATRi) dose1, per replicate.
Setting [3] is: PDO UME012, GEM + Elimusertib (ATRi) dose2, per replicate.
Where [4] appears, read: PDO UME012, GEM + Elimusertib (ATRi) dose3, per replicate.
Setting [5] is: PDO UME012, GEM alone, per replicate.

In the case of `CNCc1ccc(-c2cc(-c3nc(-c4ccc(S(=O)(=O)C(C)C)cc4)cnc3N)on2)cc1` [Berzosertib], the Kd in assay [1] was > 10 nM.

With `COc1cc(N2CCC(N3CCN(C)CC3)CC2)ccc1Nc1ncc(Cl)c(Nc2ccccc2P(C)(C)=O)n1` [Brigatinib], on AXL (read-out: KDapp), the Kd was 635 nM. Moreover, in the assay with AXL, the EC50 is 635 nM and the pKDapp was 6.20.

One may read the pEC50 as the negative decadic logarithm of the EC50, by convention in mol/L. Regarding `Nc1ccn([C@@H]2O[C@H](CO)[C@@H](O)C2(F)F)c(=O)n1` [GEM, Gemcitabine], the EC50 with PDO UME012 (Homo sapiens, PDO UME012, GEM + Elimusertib (ATRi) dose1, mean of replicates, read-out: EC50 mean) is 12.6 nM; in the assay on PDO UME012 (Homo sapiens, PDO UME012, GEM + Elimusertib (ATRi) dose1, per replicate, read-out: EC50), 11.3 nM; in the assay on PDO UME012 (Homo sapiens, PDO UME012, GEM + Elimusertib (ATRi) dose1, per replicate, read-out: pEC50 (converted)), 11.2 nM; with PDO UME012 (Homo sapiens, PDO UME012, GEM + Elimusertib (ATRi) dose2, mean of replicates, read-out: EC50 mean) it was 3.06 nM; in the assay with PDO UME012 (Homo sapiens, PDO UME012, GEM + Elimusertib (ATRi) dose2, per replicate, read-out: EC50), 3.37 nM; with PDO UME012 (Homo sapiens, PDO UME012, GEM + Elimusertib (ATRi) dose2, per replicate, read-out: pEC50 (converted)) it was 3.39 nM. Moreover, the EC50 was 2.42 nM in the assay with PDO UME012 (Homo sapiens, PDO UME012, GEM + Elimusertib (ATRi) dose3, mean of replicates, read-out: EC50 mean); 29.1 nM in the assay with PDO UME012 (Homo sapiens, PDO UME012, GEM alone, mean of replicates, read-out: EC50 mean); 29.1 nM in the assay with PDO UME012 (Homo sapiens, PDO UME012, GEM alone, read-out: EC50 mean); 15.7 nM and 14.8 nM and 8.69 nM in the assay with PDO UME012 (PDO UME012, GEM + Elimusertib (ATRi) dose1, per replicate, read-out: EC50); 3.54 nM and 2.28 nM in the assay with PDO UME012 (PDO UME012, GEM + Elimusertib (ATRi) dose2, per replicate, read-out: EC50); 3.57 nM and 1.25 nM and 2.45 nM in the assay on PDO UME012 (PDO UME012, GEM + Elimusertib (ATRi) dose3, per replicate, read-out: EC50). Moreover, the EC50 with PDO UME012 (PDO UME012, GEM alone, per replicate, read-out: EC50) is 7.11 nM and 51.3 nM and 30.5 nM and 27.6 nM. Besides, the Curve bottom with PDO UME012 (setting [2]) was 11.29 and 15.69 and 14.76 and 8.69; in the assay with PDO UME012 (setting [3]) it was 3.37 and 3.54 and 2.28; in the assay on PDO UME012 (setting [4]), 3.57 and 1.25 and 2.45. The Curve slope in the assay on PDO UME012 (setting [2]) was 0.09 and 0.08 and 0.07; in the assay with PDO UME012 (setting [3]), 0.0214 and 0.0222 and 0.0167; in the assay on PDO UME012 (setting [4]), 0.02 and 0.05 and 0.0372; in the assay on PDO UME012 (setting [5]), 0.62 and 0.42 and 0.70 and 0.52. In addition, the Curve top with PDO UME012 (setting [2]) was 1.40 and 1.29 and 1.32 and 1.45; in the assay with PDO UME012 (setting [3]) it was 1.13 and 1.28 and 1.51; with PDO UME012 (setting [4]), 1.09 and 0.99 and 1.02; in the assay with PDO UME012 (setting [5]) it was 1.21 and 1.18 and 1.06 and 1.19. Also, the pEC50 in the assay with PDO UME012 (setting [2]) is 7.80 and 7.83 and 8.06; in the assay on PDO UME012 (setting [3]), 8.45 and 8.64; in the assay with PDO UME012 (setting [4]) it was 8.45 and 8.90 and 8.61; in the assay on PDO UME012 (setting [5]) it was 8.15 and 7.29 and 7.52 and 7.56.

In the case of `C[C@]12O[C@H](C[C@]1(O)CO)n1c3ccccc3c3c4c(c5c6ccccc6n2c5c31)CNC4=O` [Lestaurtinib], the EC50 in the assay on MAPK9 was 2470 nM.
